Reference: PubChem BioAssay (NCI)
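Five compound concentrations were applied to cells in 96-well plates for 48 hours; endpoints were derived by simple linear interpolation of the resulting dose-response curve. GI50 is the concentration that inhibits growth by half. TGI: concentration producing complete growth inhibition.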 Where a SMILES comes first, the peptide text is derived from it. The star is where a group is joined. Palmitoyl = CCCCCCCCCCCCCCCC(=O)*

What was measured:
Assay in all cases: DTP human tumour cell line panel, 48 h
U251 CNS = system: U251 CNS
A498 renal = system: A498 renal
SW-620 colon = system: SW-620 colon
EKVX NSCLC = system: EKVX NSCLC
RPMI-8226 leukemia = system: RPMI-8226 leukemia
SF-268 CNS = system: SF-268 CNS
HT29 colon = system: HT29 colon
NCI-H460 lung = system: NCI-H460 lung
CAKI-1 renal = system: CAKI-1 renal
SK-MEL-2 melanoma = system: SK-MEL-2 melanoma

SMILES	TGI (U251 CNS) [µM]	TGI (A498 renal) [µM]	TGI (SW-620 colon) [µM]	TGI (EKVX NSCLC) [µM]	TGI (RPMI-8226 leukemia) [µM]	TGI (SF-268 CNS) [µM]	TGI (HT29 colon) [µM]	TGI (NCI-H460 lung) [µM]	TGI (CAKI-1 renal) [µM]	TGI (SK-MEL-2 melanoma) [µM]	GI50 (U251 CNS) [µM]	GI50 (A498 renal) [µM]	GI50 (SW-620 colon) [µM]	GI50 (EKVX NSCLC) [µM]	GI50 (SF-268 CNS) [µM]	GI50 (HT29 colon) [µM]	GI50 (SK-MEL-2 melanoma) [µM]	GI50 (RPMI-8226 leukemia) [µM]	GI50 (NCI-H460 lung) [µM]	GI50 (CAKI-1 renal) [µM]
Cn1c(-c2ccccc2)cc(-c2cccs2)c1-c1cccs1	> 100	> 100	> 100	> 100	> 100	> 100	> 100	> 100	> 100	> 100										
C/C(=N/N=C(\[O-])c1ccncc1)C(F)(F)F.C/C(=N\N=C(/[O-])c1ccncc1)C(F)(F)F.[Ni+2]		> 1	> 1	> 1		> 1	> 1				> 1	> 1	> 1	> 1	> 1	> 1	> 1			
CC(N)Cc1ccc(Cl)c(Cl)c1 (stereo not drawn)	> 89.6	> 90.6	51.8	> 100	> 84.6	> 100	56.5	97.1	74.5	37.6										
Nc1[nH]c(=O)nc2c1cnn2C1CCCCO1 (stereo not drawn)	> 100	> 100	> 100	> 100	> 100	> 100	> 100	> 100	> 100	> 100										
CON(C)c1nc(N(C)OC)nc(N(C)OC)n1	> 10	> 10	> 10	> 10	> 10	> 10	> 10	> 10	> 10	> 10										
Cc1cc(C)nc(NS(=O)(=O)c2ccc(NC(=O)c3cccc4c(Nc5ccc(S(=O)(=O)Nc6cc(C)on6)cc5)c5ccccc5nc34)cc2)n1	40.2	68.5		75.6		65.2	46.7	59.9		40										
CCN1CCC(O)(/C=C/c2ccccc2C)C(C(=O)/C=C/c2ccccc2C)C1 (stereo not drawn)	7.25	4.55	10.1	16.8		14	6.7	3.18	3.21	5.57										
CCCCCCCCCCCCCCCC(=O)N1CCCC1C(=O)NCC(=O)NC(Cc1ccccc1)C(=O)NC(C)C(=O)NC(CO)C(=O)NC(Cc1ccc(O)cc1)C(=O)NC(CCCCN)C(=O)NC(CC(C)C)C(=O)NC(CCCN=C(N)N)C(=O)N1CCCC1C(=O)NCC(N)=O (stereo not drawn) (Palmitoyl-PGFASYKLRPG-NH2; configuration not given here)		> 100	> 100	52.1	16.4	36	30.5	61.4	32.1	> 100		37.4	37.5	20.1	16.3	16.8	34.6	4.36	23.5	12.4
CC1=C(O)C2=C(C(=O)C1=O)[C@@H](C)CC[C@@H]2[C@@H](C)C/C=C/C(C)(C)O	> 100	> 100	> 100		56.3	> 100	> 100	> 100	> 100	> 100										
C=C(C)C1Cc2c(c3ccccc3n(C)c2=O)O1 (stereo not drawn)	> 100	> 100	> 100	> 100	> 100	> 100	> 100	> 100	> 100	> 100										
COC(=O)C1=C(OC(=O)/C(=C/c2ccc(Cl)cc2)c2ccc(Cl)cc2)C(C(=O)OC)[C@]2(O)[C@@H](C(=O)OC)[C@H]1C[C@@H](c1ccccc1)[C@@H]2C(=O)OC (stereo partly drawn)	> 100		> 100	> 100		> 100	> 100	> 100	> 100	> 100										
